{"source": "paper PMC8154124", "about": "“Design, Synthesis, Anticancer Evaluation, Enzymatic Assays, and a Molecular Modeling Study of Novel Pyrazole–Indole Hybrids” (ACS Omega, 2021)", "key": {"[1]": {"tested_on": "human colorectal carcinoma (HCT-116)", "test": "MTT cytotoxicity assay, HCT-116", "type": "cell-based", "conditions": "48 h, mean ± SD", "method": "(§1) The cells of human liver carcinoma (HepG2), human breast adenocarcinoma (MCF-7), human colorectal carcinoma (HCT-116), and human lung carcinoma (A549) were purchased from the American Type Culture Collection (Rockville, MD). All cells were maintained in a Dulbecco’s modified Eagle’s medium (DMEM), which was supplemented with 10% of heat-inactivated fetal bovine serum (FBS) and 100 U/mL penicillin and streptomycin each. The cells were grown at 37 °C in a humidified atmosphere of 5% CO2.\n(§2) The cytotoxicity activities on the human liver carcinoma (HepG2), human breast adenocarcinoma (MCF-7), human colorectal carcinoma (HCT-116), and human lung carcinoma (A549) cell lines were estimated employing the 3-(4,5-dimethyl-2-thiazolyl)-2,5-diphenyl-2H-tetrazolium bromide (MTT) assay, which was grounded on the reduction of the tetrazolium salt by mitochondrial dehydrogenases in viable cells.[51],[52] The cells were dispensed in a 96-well sterile microplate (3 × 10^4 cells/well), followed by their incubation at 37 °C with a series of different concentrations of 10 μL of each compound or doxorubicin (positive control, in DMSO) for 48 h in a serum-free medium prior to the MTT assay. Subsequently, the media were carefully removed, and 40 μL of MTT (2.5 mg/mL) was added to each well and then incubated for an additional 4 h. Purple formazan dye crystals were solubilized by the addition of 200 μL of DMSO. The absorbance was measured at 570 nm using a SpectraMax Paradigm Multi-Mode microplate reader. The relative cell viability was expressed as the mean percentage of viable cells relative to the untreated control cells. All experiments were conducted in triplicate and were repeated on three different days. All of the values were represented as mean ± standard deviation (SD). The IC50s were determined by the SPSS probit analysis software program (SPSS Inc., Chicago, IL)."}, "[2]": {"tested_on": "human breast adenocarcinoma (MCF-7)", "test": "MTT cytotoxicity assay, MCF-7", "type": "cell-based", "conditions": "MCF7, 48 h, mean ± SD", "method": "as §1, §2"}, "[3]": {"tested_on": "human liver carcinoma (HepG2)", "test": "MTT cytotoxicity assay, HepG2", "type": "cell-based", "conditions": "48 h, mean ± SD", "method": "as §1, §2"}, "[4]": {"tested_on": "human lung carcinoma (A549)", "test": "MTT cytotoxicity assay, A549", "type": "cell-based", "conditions": "48 h, mean ± SD", "method": "as §1, §2"}}, "data": [{"smiles": "CCN1C(=O)C(=Nc2[nH]nc(Nc3ccccc3)c2C(=O)Nc2ccc(C)cc2)c2ccccc21", "note": "[5g, 5-(1-Ethyl-2-oxoindolin-3-ylideneamino)-3-(phenylamino)-N-(4-methylphenyl)-1H-pyrazole-4-carboxamide]", "values": [{"measurement": "IC50", "setting": "[1]", "result": "35.7 ± 3.9", "unit": "µM"}, {"measurement": "IC50", "setting": "[2]", "result": "54 ± 4.9", "unit": "µM"}, {"measurement": "IC50", "setting": "[3]", "result": "27.8 ± 3.5", "unit": "µM"}, {"measurement": "IC50", "setting": "[4]", "result": "46.8 ± 5.3", "unit": "µM"}]}, {"smiles": "CCN1C(=O)C(=Nc2[nH]nc(Nc3ccc(OC)cc3)c2C(=O)Nc2ccccc2)c2ccccc21", "note": "[5i, 5-(1-Ethyl-2-oxoindolin-3-ylideneamino)-3-(4-methoxyphenylamino)-N-phenyl-1H-pyrazole-4-carboxamide]", "values": [{"measurement": "IC50", "setting": "[1]", "result": "53.9 ± 5.7", "unit": "µM"}, {"measurement": "IC50", "setting": "[2]", "result": "30.1 ± 4.2", "unit": "µM"}, {"measurement": "IC50", "setting": "[3]", "result": "26.7 ± 3.1", "unit": "µM"}, {"measurement": "IC50", "setting": "[4]", "result": "47.8 ± 4.5", "unit": "µM"}]}, {"smiles": "CCN1C(=O)C(=Nc2[nH]nc(Nc3ccccc3)c2C(=O)Nc2ccccc2)c2ccccc21", "note": "[5f, 5-(1-Ethyl-2-oxoindolin-3-ylideneamino)-N-phenyl-3-(phenylamino)-1H-pyrazole-4-carboxamide]", "values": [{"measurement": "IC50", "setting": "[1]", "result": "28.9 ± 3.9", "unit": "µM"}, {"measurement": "IC50", "setting": "[2]", "result": "42.1 ± 4.7", "unit": "µM"}, {"measurement": "IC50", "setting": "[3]", "result": "23.7 ± 3.1", "unit": "µM"}, {"measurement": "IC50", "setting": "[4]", "result": "52.9 ± 4.5", "unit": "µM"}]}, {"smiles": "COc1ccc(Nc2n[nH]c(N=Cc3c[nH]c4ccccc34)c2C(=O)Nc2ccccc2)cc1", "note": "[7d, 5-((1H-Indol-3-yl)methyleneamino)-3-(4-methoxyphenylamino)-N-phenyl-1H-pyrazole-4-carboxamide]", "values": [{"measurement": "IC50", "setting": "[1]", "result": "25.3 ± 3.5", "unit": "µM"}, {"measurement": "IC50", "setting": "[2]", "result": "17.4 ± 2.3", "unit": "µM"}, {"measurement": "IC50", "setting": "[3]", "result": "27.2 ± 3.5", "unit": "µM"}, {"measurement": "IC50", "setting": "[4]", "result": "58.7 ± 4.2", "unit": "µM"}]}, {"smiles": "COc1ccc(Nc2n[nH]c(N=Cc3c[nH]c4ccccc34)c2C(N)=O)cc1", "note": "[7c, 5-((1H-Indol-3-yl)methyleneamino)-3-(4-methoxyphenylamino)-1H-pyrazole-4-carboxamide]", "values": [{"measurement": "IC50", "setting": "[1]", "result": "31.9 ± 3.8", "unit": "µM"}, {"measurement": "IC50", "setting": "[2]", "result": "22.2 ± 3.3", "unit": "µM"}, {"measurement": "IC50", "setting": "[3]", "result": "35.8 ± 3.9", "unit": "µM"}, {"measurement": "IC50", "setting": "[4]", "result": "43.4 ± 4.2", "unit": "µM"}, {"measurement": "melting point", "result": "260 to 262", "unit": "°C"}]}, {"smiles": "CCN1C(=O)C(=Nc2[nH]nc(Nc3ccc(OC)cc3)c2C(N)=O)c2ccccc21", "note": "[5h, 5-(1-Ethyl-2-oxoindolin-3-ylideneamino)-3-(4-methoxyphenylamino)-1H-pyrazole-4-carboxamide]", "values": [{"measurement": "IC50", "setting": "[1]", "result": "25.7 ± 4.3", "unit": "µM"}, {"measurement": "IC50", "setting": "[2]", "result": "25.4 ± 3.9", "unit": "µM"}, {"measurement": "IC50", "setting": "[3]", "result": "28.2 ± 3.5", "unit": "µM"}, {"measurement": "IC50", "setting": "[4]", "result": "41.9 ± 3.9", "unit": "µM"}, {"measurement": "melting point", "result": "269 to 271", "unit": "°C"}]}, {"smiles": "COc1cccc2c1C(=O)c1c(O)c3c(c(O)c1C2=O)C[C@@](O)(C(=O)CO)C[C@@H]3O[C@H]1C[C@H](N)[C@H](O)[C@H](C)O1", "note": "[doxorubicin, reference compound]", "values": [{"measurement": "IC50", "setting": "[1]", "result": "40 ± 3.9", "unit": "µM"}, {"measurement": "IC50", "setting": "[2]", "result": "64.8 ± 4.1", "unit": "µM"}, {"measurement": "IC50", "setting": "[3]", "result": "24.7 ± 3.2", "unit": "µM"}, {"measurement": "IC50", "setting": "[4]", "result": "58.1 ± 4.1", "unit": "µM"}]}, {"smiles": "COc1ccc(Nc2n[nH]c(N=C3C(=O)N(C)c4ccccc43)c2C(=O)Nc2ccccc2)cc1", "note": "[5d, 3-(4-Methoxyphenylamino)-5-(1-methyl-2-oxoindolin-3-ylideneamino)-N-phenyl-1H-pyrazole-4-carboxamide]", "values": [{"measurement": "IC50", "setting": "[1]", "result": "54.2 ± 5.5", "unit": "µM"}, {"measurement": "IC50", "setting": "[2]", "result": "46.4 ± 4.5", "unit": "µM"}, {"measurement": "IC50", "setting": "[3]", "result": "34.8 ± 3.9", "unit": "µM"}, {"measurement": "IC50", "setting": "[4]", "result": "56 ± 4.1", "unit": "µM"}]}, {"smiles": "COc1ccc(Nc2n[nH]c(N=Cc3c[nH]c4ccccc34)c2C(=O)Nc2ccc(C)cc2)cc1", "note": "[7e, 5-((1H-Indol-3-yl)methyleneamino)-3-(4-methoxyphenylamino)-N-(4-methylphenyl)-1H-pyrazole-4-carboxamide]", "values": [{"measurement": "IC50", "setting": "[1]", "result": "37.4 ± 4.1", "unit": "µM"}, {"measurement": "IC50", "setting": "[2]", "result": "16.2 ± 2.3", "unit": "µM"}, {"measurement": "IC50", "setting": "[3]", "result": "25.8 ± 3.5", "unit": "µM"}, {"measurement": "IC50", "setting": "[4]", "result": "40.8 ± 4.3", "unit": "µM"}]}, {"smiles": "Cc1ccc(NC(=O)c2c(Nc3ccccc3)n[nH]c2N=C2C(=O)N(C)c3ccccc32)cc1", "note": "[5b, 5-(1-Methyl-2-oxoindolin-3-ylideneamino)-3-(phenylamino)-N-(4-methylphenyl)-1H-pyrazole-4-carboxamide]", "values": [{"measurement": "IC50", "setting": "[1]", "result": "28.1 ± 3.5", "unit": "µM"}, {"measurement": "IC50", "setting": "[2]", "result": "48 ± 5.1", "unit": "µM"}, {"measurement": "IC50", "setting": "[3]", "result": "37.1 ± 4.3", "unit": "µM"}, {"measurement": "IC50", "setting": "[4]", "result": "46.7 ± 4.9", "unit": "µM"}]}, {"smiles": "COc1ccc(Nc2n[nH]c(N=C3C(=O)N(C)c4ccccc43)c2C(=O)Nc2ccc(C)cc2)cc1", "note": "[5e, 3-(4-Methoxyphenylamino)-5-(1-methyl-2-oxoindolin-3-ylideneamino)-N-(4-methylphenyl)-1H-pyrazole-4-carboxamide]", "values": [{"measurement": "IC50", "setting": "[1]", "result": "39.9 ± 4.2", "unit": "µM"}, {"measurement": "IC50", "setting": "[2]", "result": "61.8 ± 5.1", "unit": "µM"}, {"measurement": "IC50", "setting": "[3]", "result": "32 ± 3.9", "unit": "µM"}, {"measurement": "IC50", "setting": "[4]", "result": "77.7 ± 5.6", "unit": "µM"}]}, {"smiles": "COc1ccc(Nc2n[nH]c(N=C3C(=O)N(C)c4ccccc43)c2C(N)=O)cc1", "note": "[5c, 3-(4-Methoxyphenylamino)-5-(1-methyl-2-oxoindolin-3-ylideneamino)-1H-pyrazole-4-carboxamide]", "values": [{"measurement": "IC50", "setting": "[1]", "result": "39.5 ± 4.5", "unit": "µM"}, {"measurement": "IC50", "setting": "[2]", "result": "22 ± 3.5", "unit": "µM"}, {"measurement": "IC50", "setting": "[3]", "result": "32.8 ± 3.8", "unit": "µM"}, {"measurement": "IC50", "setting": "[4]", "result": "40.7 ± 4.1", "unit": "µM"}, {"measurement": "melting point", "result": "265 to 267", "unit": "°C"}]}, {"smiles": "CN1C(=O)C(=Nc2[nH]nc(Nc3ccccc3)c2C(=O)Nc2ccccc2)c2ccccc21", "note": "[5a, 5-(1-Methyl-2-oxoindolin-3-ylideneamino)-N-phenyl-3-(phenylamino)-1H-pyrazole-4-carboxamide]", "values": [{"measurement": "IC50", "setting": "[1]", "result": "25.7 ± 3.5", "unit": "µM"}, {"measurement": "IC50", "setting": "[2]", "result": "28.3 ± 3.5", "unit": "µM"}, {"measurement": "IC50", "setting": "[3]", "result": "27.6 ± 3.1", "unit": "µM"}, {"measurement": "IC50", "setting": "[4]", "result": "42.8 ± 4.2", "unit": "µM"}]}, {"smiles": "CCN1C(=O)C(=Nc2[nH]nc(Nc3ccc(OC)cc3)c2C(=O)Nc2ccc(C)cc2)c2ccccc21", "note": "[5j, 5-(1-Ethyl-2-oxoindolin-3-ylideneamino)-3-(4-methoxyphenylamino)-N-(4-methylphenyl)-1H-pyrazole-4-carboxamide]", "values": [{"measurement": "IC50", "setting": "[1]", "result": "38.9 ± 4.1", "unit": "µM"}, {"measurement": "IC50", "setting": "[2]", "result": "63.7 ± 5.5", "unit": "µM"}, {"measurement": "IC50", "setting": "[3]", "result": "24.4 ± 2.9", "unit": "µM"}, {"measurement": "IC50", "setting": "[4]", "result": "57 ± 4.9", "unit": "µM"}]}]}
